{"source": "patent US9273043B2", "about": "“TRPV1 antagonists including dihydroxy substituent and uses thereof” (Purdue Pharma L.P., priority 2011, dated 2016)", "tested_on": "MIA-induced osteoarthritis pain", "experiment": "MIA-induced osteoarthritis model, grip force test", "format": "in vivo, rat", "settings": "rat MIA, grip force", "text": "Osteoarthritis Pain: To assess the actions of a Compound of Formula (I) for the treatment or prevention of osteoarthritis pain, the rat monosodium iodo-acetate (MIA, i.e., sodium 2-iodoacetate) induced osteoarthritis model was used. Intra-articular injection of MIA causes joint degeneration characterized by osteolysis and swelling, with displacement of the patella, and reductions in bone mineral content and bone mineral density (Pomonis et al., “Development and pharmacological characterization of a rat model of osteoarthritis pain,” Pain 114: 339-346 (2005)). Under isoflurane anaesthesia, an intra-articular injection of 2 mg of MIA (Sigma-Aldrich) in 50 μl of saline was administered through the infrapatellar ligament of the knee joint of the right hind leg of the male, 6 week old Crl:CD(SD) rats. Control rats received an intra-articular injection of 50 μl of saline into the knee joint of the right hind leg. The left knee joint of all rats was untreated. Two weeks after MIA injection, rats were assessed for osteoarthritis pain related-behaviors immediately prior to and 1, 3, 5, 7, and 24 hours after oral drug-in-vehicle administration (for day 1) by determining their weight-bearing capabilities, via the weight bearing difference (WBD) test, and their gripping capabilities, via the grip force test, each as described below. Thus, in the assessment for osteoarthritis pain relief through gripping capability determinations, the 24 hour time point was the start of the next day when drug-in-vehicle was again orally administered (24 hours after the prior administration) for certain dosages. On days 2, 3, and 4, gripping capability response was determined 3 and 24 hours thereafter.\nThe grip force (GF) of the hind legs was assessed using a Animal Grip Strength System (San Diego Instruments, San Diego, Calif.). Rats were gently restrained and allowed to grasp the wire mesh strain gauge with their hind legs. The animals were then moved in a rostral-caudal direction until they let go of the gauge. The force (in g) at which the rat let go was recorded. Each animal was tested twice at approximately 3-10 minute intervals at each time point and the average of the two readings was used for the GF in data analysis.\nGrip force, normalized to account for the weight of each animal, was expressed as “GF/B”, i.e., the ratio of GF to body weight, where GF is the grip force in grams and B is the body weight of the animal in kg. The “% GFR”, i.e., the percentage reversal of the (normalized) grip force impediment occurring post-MIA injection, was determined for each dosage at each time point using the following formula:\n[formula] where (GF/B)Drug is the GF/B determined at each post-oral-administration time-point for each dose of each substance administered to MIA-injected animals, (GF/B)Vehicle is the GF/B determined at each post-oral-administration time-point for the vehicle control administered to MIA-injected animals, and (GF/B)Control Rat is the GF/B determined for control rats (saline-injected animals receiving orally-administered vehicle only). With the exception of the controls (i.e., celecoxib, vehicle) where the student's t-test was used, Dunnett's test was conducted for the % GFR. In either instance, values with p <0.05 were considered to be statistically significant.", "note": "Marks after values point to notes of the source that are not given here."}
{"smiles": "CC1CN(c2ncc(C(O)CO)cc2F)CCN1C(=O)Nc1nc2cc(F)ccc2s1.O=C(O)C=CC(=O)O", "note": "(stereo not drawn)", "values": [{"measurement": "% GFR [mean]", "setting": "oral 0.3 mg/kg, 1 h (day 1)", "result": 12.8, "unit": "%"}, {"measurement": "% GFR [mean]", "setting": "oral 0.3 mg/kg, 3 h (day 1)", "result": "21.1* %"}, {"measurement": "% GFR [mean]", "setting": "oral 0.3 mg/kg, 3 h (day 1), listed as product prepared with Compound A155(a) and fumaric acid", "result": 21.1, "unit": "%"}, {"measurement": "% GFR [mean]", "setting": "oral 0.3 mg/kg, 5 h (day 1)", "result": "17.3* %"}, {"measurement": "% GFR [mean]", "setting": "oral 0.3 mg/kg, 7 h (day 1)", "result": 3.7, "unit": "%"}, {"measurement": "% GFR [mean]", "setting": "oral 0.3 mg/kg, 24 h after day 1 dose (0 hrs day 2)", "result": 4.0, "unit": "%"}, {"measurement": "% GFR [mean]", "setting": "oral 1 mg/kg once daily, 3 h (day 2)", "result": "43.1** %"}, {"measurement": "% GFR [mean]", "setting": "oral 1 mg/kg once daily, 3 h (day 2), listed as product prepared with Compound A155(a) and fumaric acid", "result": 43.1, "unit": "%"}, {"measurement": "% GFR [mean]", "setting": "oral 1 mg/kg once daily, 3 h (day 3)", "result": "38.0** %"}, {"measurement": "% GFR [mean]", "setting": "oral 1 mg/kg once daily, 3 h (day 3), listed as product prepared with Compound A155(a) and fumaric acid", "result": 38.0, "unit": "%"}, {"measurement": "% GFR [mean]", "setting": "oral 1 mg/kg once daily, 3 h (day 4)", "result": "40.1** %"}, {"measurement": "% GFR [mean]", "setting": "oral 1 mg/kg once daily, 3 h (day 4), listed as product prepared with Compound A155(a) and fumaric acid", "result": 40.1, "unit": "%"}, {"measurement": "% GFR [mean]", "setting": "oral 1 mg/kg once daily, 24 h after day 2 dose (0 hrs day 3)", "result": "15.4** %"}, {"measurement": "% GFR [mean]", "setting": "oral 1 mg/kg once daily, 24 h after day 3 dose (0 hrs day 4)", "result": "26.1** %"}, {"measurement": "% GFR [mean]", "setting": "oral 1 mg/kg once daily, 24 h after day 4 dose (0 hrs day 5)", "result": "26.4** %"}, {"measurement": "% GFR [mean]", "setting": "oral 1 mg/kg, 1 h (day 1)", "result": "29.7** %"}, {"measurement": "% GFR [mean]", "setting": "oral 1 mg/kg, 3 h (day 1)", "result": "45.2** %"}, {"measurement": "% GFR [mean]", "setting": "oral 1 mg/kg, 3 h (day 1), listed as product prepared with Compound A155(a) and fumaric acid", "result": 45.2, "unit": "%"}, {"measurement": "% GFR [mean]", "setting": "oral 1 mg/kg, 5 h (day 1)", "result": "37.6** %"}, {"measurement": "% GFR [mean]", "setting": "oral 1 mg/kg, 7 h (day 1)", "result": "16.5* %"}, {"measurement": "% GFR [mean]", "setting": "oral 1 mg/kg, 24 h after day 1 dose (0 hrs day 2)", "result": 3.1, "unit": "%"}, {"measurement": "% GFR [mean]", "setting": "oral 3 mg/kg once daily, 3 h (day 2)", "result": "50.5** %"}, {"measurement": "% GFR [mean]", "setting": "oral 3 mg/kg once daily, 3 h (day 2), listed as product prepared with Compound A155(a) and fumaric acid", "result": 50.5, "unit": "%"}, {"measurement": "% GFR [mean]", "setting": "oral 3 mg/kg once daily, 3 h (day 3)", "result": "45.0** %"}, {"measurement": "% GFR [mean]", "setting": "oral 3 mg/kg once daily, 3 h (day 3), listed as product prepared with Compound A155(a) and fumaric acid", "result": 45.0, "unit": "%"}, {"measurement": "% GFR [mean]", "setting": "oral 3 mg/kg once daily, 3 h (day 4)", "result": "45.6** %"}, {"measurement": "% GFR [mean]", "setting": "oral 3 mg/kg once daily, 3 h (day 4), listed as product prepared with Compound A155(a) and fumaric acid", "result": 45.6, "unit": "%"}, {"measurement": "% GFR [mean]", "setting": "oral 3 mg/kg once daily, 24 h after day 2 dose (0 hrs day 3)", "result": "22.0** %"}, {"measurement": "% GFR [mean]", "setting": "oral 3 mg/kg once daily, 24 h after day 3 dose (0 hrs day 4)", "result": "32.0** %"}, {"measurement": "% GFR [mean]", "setting": "oral 3 mg/kg once daily, 24 h after day 4 dose (0 hrs day 5)", "result": "28.9** %"}, {"measurement": "% GFR [mean]", "setting": "oral 3 mg/kg, 1 h (day 1)", "result": "36.5** %"}, {"measurement": "% GFR [mean]", "setting": "oral 3 mg/kg, 3 h (day 1)", "result": "53.6** %"}, {"measurement": "% GFR [mean]", "setting": "oral 3 mg/kg, 3 h (day 1), listed as product prepared with Compound A155(a) and fumaric acid", "result": 53.6, "unit": "%"}, {"measurement": "% GFR [mean]", "setting": "oral 3 mg/kg, 5 h (day 1)", "result": "44.3** %"}, {"measurement": "% GFR [mean]", "setting": "oral 3 mg/kg, 7 h (day 1)", "result": "19.9** %"}, {"measurement": "% GFR [mean]", "setting": "oral 3 mg/kg, 24 h after day 1 dose (0 hrs day 2)", "result": "−2.2", "unit": "%"}, {"measurement": "% GFR [mean]", "setting": "oral 10 mg/kg once daily, 3 h (day 2)", "result": "57.5** %"}, {"measurement": "% GFR [mean]", "setting": "oral 10 mg/kg once daily, 3 h (day 2), listed as product prepared with Compound A155(a) and fumaric acid", "result": 57.5, "unit": "%"}, {"measurement": "% GFR [mean]", "setting": "oral 10 mg/kg once daily, 3 h (day 3)", "result": "51.6** %"}, {"measurement": "% GFR [mean]", "setting": "oral 10 mg/kg once daily, 3 h (day 3), listed as product prepared with Compound A155(a) and fumaric acid", "result": 51.6, "unit": "%"}, {"measurement": "% GFR [mean]", "setting": "oral 10 mg/kg once daily, 3 h (day 4)", "result": "52.2** %"}, {"measurement": "% GFR [mean]", "setting": "oral 10 mg/kg once daily, 3 h (day 4), listed as product prepared with Compound A155(a) and fumaric acid", "result": 52.2, "unit": "%"}, {"measurement": "% GFR [mean]", "setting": "oral 10 mg/kg once daily, 24 h after day 2 dose (0 hrs day 3)", "result": "32.7** %"}, {"measurement": "% GFR [mean]", "setting": "oral 10 mg/kg once daily, 24 h after day 3 dose (0 hrs day 4)", "result": "33.4** %"}, {"measurement": "% GFR [mean]", "setting": "oral 10 mg/kg once daily, 24 h after day 4 dose (0 hrs day 5)", "result": "32.0** %"}, {"measurement": "% GFR [mean]", "setting": "oral 10 mg/kg, 1 h (day 1)", "result": "35.9** %"}, {"measurement": "% GFR [mean]", "setting": "oral 10 mg/kg, 3 h (day 1)", "result": "55.6** %"}, {"measurement": "% GFR [mean]", "setting": "oral 10 mg/kg, 3 h (day 1), listed as product prepared with Compound A155(a) and fumaric acid", "result": 55.6, "unit": "%"}, {"measurement": "% GFR [mean]", "setting": "oral 10 mg/kg, 5 h (day 1)", "result": "45.9** %"}, {"measurement": "% GFR [mean]", "setting": "oral 10 mg/kg, 7 h (day 1)", "result": "22.8** %"}, {"measurement": "% GFR [mean]", "setting": "oral 10 mg/kg, 24 h after day 1 dose (0 hrs day 2)", "result": "−5.7", "unit": "%"}, {"measurement": "% GFR [mean]", "setting": "oral 20 mg/kg, 1 h (day 1)", "result": "49.0** %"}, {"measurement": "% GFR [mean]", "setting": "oral 20 mg/kg, 3 h (day 1)", "result": "65.1** %"}, {"measurement": "% GFR [mean]", "setting": "oral 20 mg/kg, 3 h (day 1), listed as product prepared with Compound A155(a) and fumaric acid", "result": 65.1, "unit": "%"}, {"measurement": "% GFR [mean]", "setting": "oral 20 mg/kg, 5 h (day 1)", "result": "50.3** %"}, {"measurement": "% GFR [mean]", "setting": "oral 20 mg/kg, 7 h (day 1)", "result": "29.3** %"}, {"measurement": "% GFR [mean]", "setting": "oral 20 mg/kg, 24 h after day 1 dose (0 hrs day 2)", "result": "−1.3", "unit": "%"}]}
